According to patent US20230053688A1, “METHODS TO ALTER LATENCY IN EBV+ MALIGNANCIES” (Cornell University, priority 2020, published 2023):
Structures can show the parent of a compound that is named as a salt. Where two headings read alike, the source gives them in different places.

System: LMP1 expression in Kem I cells
Experiment: microbe, parasite or virus in culture
Format: cell-based, EBV
Conditions: for fold induction at 2.5 µM: human gammaherpesvirus 4, 48 h; for Average LMP1 Fold Increase / Replicate 1-LMP1 Fold Increase / Replicate 2-LMP1 Fold Increase: Kem I cells, 48 hours
[1] = read-out: Average LMP1 Fold Increase, Kem I cells, 2.5 uM, 48 hours, average of replicates 1 and 2
[2] = read-out: Replicate 1-LMP1 Fold Increase, Kem I cells, 2.5 uM, 48 hours, fold change in LMP1 transcript vs vehicle
[3] = read-out: Replicate 2-LMP1 Fold Increase, Kem I cells, 2.5 uM, 48 hours, fold change in LMP1 transcript vs vehicle
[4] = 2.5 uM, average of replicates 1 and 2
[5] = 2.5 uM, fold change in LMP1 transcript vs vehicle
[6] = dose 2.5 uM, LMP1 transcript by in-well qRT-PCR, average of the two replicates
[7] = dose 2.5 uM, LMP1 transcript by in-well qRT-PCR, screen replicate 1
[8] = dose 2.5 uM, LMP1 transcript by in-well qRT-PCR, screen replicate 2
[9] = read-out: Average LMP1 Fold Increase, Kem I cells, dose 2.5 uM, 48 hours, LMP1 transcript by in-well qRT-PCR, average of the two replicates
[10] = read-out: Replicate 1-LMP1 Fold Increase, Kem I cells, dose 2.5 uM, 48 hours, LMP1 transcript by in-well qRT-PCR, screen replicate 1
[11] = read-out: Replicate 2-LMP1 Fold Increase, Kem I cells, dose 2.5 uM, 48 hours, LMP1 transcript by in-well qRT-PCR, screen replicate 2

Compound	Average LMP1 Fold Increase [6]	Replicate 1-LMP1 Fold Increase [7]	Replicate 2-LMP1 Fold Increase [8]	fold induction at 2.5 µM [9]	fold induction at 2.5 µM [10]	fold induction at 2.5 µM [11]	further results
Cc1[nH]c(/C=C2\C(=O)Nc3ccc(S(=O)(=O)N(C)c4cccc(Cl)c4)cc32)c(C)c1C(=O)N1CCN(C)CC1 [SU11274]	–	–	–	–	–	–	fold induction at 2.5 µM [1]: 0.94; fold induction at 2.5 µM [2]: 1.05; fold induction at 2.5 µM [3]: 0.82
C[C@H](NCc1ccc(OCc2cccc(F)c2)cc1)C(N)=O [Safinamide Mesylate]	–	–	–	–	–	–	fold induction at 2.5 µM [1]: 0.95; fold induction at 2.5 µM [2]: 0.2; fold induction at 2.5 µM [3]: 1.71
O=C(/C=C/c1ccccc1)NC(NC(=S)Nc1ccc(Cl)cc1)C(Cl)(Cl)Cl (stereo not drawn) [Sal003]	–	–	–	–	–	–	Average LMP1 Fold Increase [4]: 0.64; Replicate 1-LMP1 Fold Increase [5]: 0.76; Replicate 2-LMP1 Fold Increase [5]: 0.53
Cn1cnc2c(F)c(Nc3ccc(Br)cc3Cl)c(C(=O)NOCCO)cc21 [Selumetinib (AZD6244)]	–	–	–	–	–	–	Average LMP1 Fold Increase [4]: 0.54; Replicate 1-LMP1 Fold Increase [5]: 0.64; Replicate 2-LMP1 Fold Increase [5]: 0.44
CC(C)[C@H](O)C(=O)N[C@@H](C)C(=O)N[C@@H]1C(=O)N(C)CCc2ccccc21 [Semagacestat (LY450139)]	–	–	–	–	–	–	Average LMP1 Fold Increase [4]: 0.45; Replicate 1-LMP1 Fold Increase [5]: 0.31; Replicate 2-LMP1 Fold Increase [5]: 0.59
CN[C@H]1CC[C@@H](c2ccc(Cl)c(Cl)c2)c2ccccc21 [Sertraline HCl]	–	–	–	–	–	–	fold induction at 2.5 µM [1]: 1.07; fold induction at 2.5 µM [2]: 0.81; fold induction at 2.5 µM [3]: 1.33
CC(NC(=O)c1ccccc1/N=C/c1c(O)ccc2ccccc12)c1ccccc1 (stereo not drawn) [Sirtinol]	–	–	–	–	–	–	fold induction at 2.5 µM [1]: 0.6; fold induction at 2.5 µM [2]: 0.28; fold induction at 2.5 µM [3]: 0.92
Cc1cc2c(cc1CC(=O)c1sccc1S(=O)(=O)Nc1onc(C)c1Cl)OCO2 [Sitaxentan sodium]	–	–	–	–	–	–	fold induction at 2.5 µM [1]: 0.25; fold induction at 2.5 µM [2]: 0.16; fold induction at 2.5 µM [3]: 0.34
Nc1ccc(C(=O)O)c(O)c1 [Sodium 4-Aminosalicylate]	–	–	–	–	–	–	fold induction at 2.5 µM [1]: 0.36; fold induction at 2.5 µM [2]: 0.19; fold induction at 2.5 µM [3]: 0.53
CNC(=O)c1cc(Oc2ccc(NC(=O)Nc3ccc(Cl)c(C(F)(F)F)c3)cc2)ccn1 [Sorafenib]	–	–	–	–	–	–	fold induction at 2.5 µM [1]: 0.54; fold induction at 2.5 µM [2]: 0.43; fold induction at 2.5 µM [3]: 0.64
CN1CCN(c2nc(C3=C(c4c[nH]c5ccccc45)C(=O)NC3=O)c3ccccc3n2)CC1 [Sotrastaurin]	–	–	–	–	–	–	fold induction at 2.5 µM [1]: 0.31; fold induction at 2.5 µM [2]: 0.3; fold induction at 2.5 µM [3]: 0.31
O=[N+]([O-])c1ccc2c(c1)S(=O)(=O)C=C2 [Stattic]	–	–	–	–	–	–	Average LMP1 Fold Increase [4]: 26.57; Replicate 1-LMP1 Fold Increase [5]: 50.36; Replicate 2-LMP1 Fold Increase [5]: 2.79
Cc1cn([C@H]2C=C[C@@H](CO)O2)c(=O)[nH]c1=O [Stavudine (d4T)]	–	–	–	–	–	–	Average LMP1 Fold Increase [4]: 0.73; Replicate 1-LMP1 Fold Increase [5]: 0.83; Replicate 2-LMP1 Fold Increase [5]: 0.63
Cc1ccc(-n2nccn2)c(C(=O)N2CCN(c3nc4cc(Cl)ccc4o3)CC[C@H]2C)c1 [Suvorexant (MK-4305)]	1.47 fold	0.37 fold	2.57 fold	–	–	–	–
O=C(Nc1ccncc1)c1cc([N+](=O)[O-])ccc1Cl [T0070907]	0.56 fold	0.63 fold	0.50 fold	–	–	–	–
O=S(=O)(c1ccccc1)N(CC(F)(F)F)c1ccc(C(O)(C(F)(F)F)C(F)(F)F)cc1 [T0901317]	–	–	–	0.44	0.41	0.47	–
CNC(=O)c1ccccc1Nc1nc(Nc2ccc(N3CCOCC3)cc2OC)ncc1Cl [TAE226 (NVP-TAE226)]	1.35 fold	1.38 fold	1.31 fold	–	–	–	–
CNC(=O)c1ccc2cc([C@@]3(O)CCn4cncc43)ccc2c1 [TAK-700 (Orteronel)]	0.90 fold	0.75 fold	1.06 fold	–	–	–	–
Cc1cc(OCCCS(C)(=O)=O)cc(C)c1-c1cccc(COc2ccc3c(c2)OC[C@H]3CC(=O)O)c1 [TAK-875]	–	–	–	0.57	0.55	0.59	–
O=C1CC(=O)c2c(Cl)c(Cl)c(Cl)c(Cl)c21 [TCID]	0.52 fold	0.66 fold	0.38 fold	–	–	–	–
COc1ccc(C(=O)Nc2sc3c(c2C(N)=O)CCCC3)cc1OC [TCS 359]	0.40 fold	0.62 fold	0.19 fold	–	–	–	–

Compound	Average LMP1 Fold Increase [6]	Replicate 1-LMP1 Fold Increase [7]	Replicate 2-LMP1 Fold Increase [8]	fold induction at 2.5 µM [9]	fold induction at 2.5 µM [10]	fold induction at 2.5 µM [11]	further results
Nc1nc(N)c2nc(-c3cccc(O)c3)c(-c3cccc(O)c3)nc2n1 [TG100-115]	0.53 fold	0.33 fold	0.73 fold	–	–	–	–
NC(=O)Nc1sc(-c2ccc(F)cc2)cc1C(N)=O [TPCA-1]	0.48 fold	0.59 fold	0.36 fold	–	–	–	–
Nc1cccc(-c2cc3c(Oc4cccc(O)c4)ncnc3[nH]2)c1 [TWS119]	0.56 fold	0.62 fold	0.49 fold	–	–	–	–
CN1CC(=O)N2[C@H](c3ccc4c(c3)OCO4)c3[nH]c4ccccc4c3C[C@@H]2C1=O [Tadalafil]	–	–	–	3.06	3.8	2.32	–
COc1cc2c(N3CCN(C(=O)Nc4ccc(OC(C)C)cc4)CC3)ncnc2cc1OCCCN1CCCCC1 [Tandutinib (MLN518)]	0.31 fold	0.21 fold	0.41 fold	–	–	–	–
COc1cc2c(cc1OC)CN(CCc1ccc(NC(=O)c3cc(OC)c(OC)cc3NC(=O)c3cnc4ccccc4c3)cc1)CC2 [Tariquidar]	–	–	–	0.71	0.56	0.87	–
CCCc1nc2c(C)cc(-c3nc4ccccc4n3C)cc2n1Cc1ccc(-c2ccccc2C(=O)O)cc1 [Telmisartan]	–	–	–	0.37	0.29	0.45	–
CO[C@H]1C[C@@H]2CC[C@@H](C)[C@@](O)(O2)C(=O)C(=O)N2CCCC[C@H]2C(=O)O[C@H]([C@H](C)C[C@@H]2CC[C@@H](OC(=O)C(C)(CO)CO)[C@H](OC)C2)CC(=O)[C@H](C)/C=C(\C)[C@@H](O)[C@@H](OC)C(=O)[C@H](C)C[C@H](C)/C=C/C=C/C=C/1C [Temsirolimus (CCI-779, NSC 683864)]	155.77 fold	1.06 fold	310.48 fold	–	–	–	–
CC(C)OC(=O)OCOP(=O)(CO[C@H](C)Cn1cnc2c(N)ncnc21)OCOC(=O)OC(C)C [Tenofovir Disoproxil Fumarate]	–	–	–	0.56	0.21	0.9	–
C[C@H](Cn1cnc2c(N)ncnc21)OCP(=O)(O)O [Tenofovir]	0.18 fold	0.18 fold	0.19 fold	–	–	–	–
CN(C)CCCCC(=O)Nc1ccc(NC(=S)NC(=O)c2ccc(C(C)(C)C)cc2)cc1 [Tenovin-6]	1.79 fold	1.55 fold	2.03 fold	–	–	–	–
O=C(NCc1ccccc1)c1csc(Nc2ccncn2)n1 [Thiazovivin]	1.05 fold	1.05 fold	1.04 fold	–	–	–	–
CCCSc1nc(N[C@@H]2C[C@H]2c2ccc(F)c(F)c2)c2nnn([C@@H]3C[C@H](OCCO)[C@@H](O)[C@H]3O)c2n1 [Ticagrelor]	–	–	–	0.66	0.61	0.7	–
Clc1ccccc1CN1CCc2sccc2C1 [Ticlopidine HCl]	–	–	–	1.15	0.52	1.78	–
COc1ccc2cc(-c3nc(-c4ccc([S+](C)[O-])cc4)[nH]c3-c3ccncc3)ccc2c1 (stereo not drawn) [Tie2 kinase inhibitor]	1.08 fold	0.36 fold	1.81 fold	–	–	–	–
O=c1oc2cc(O)ccc2s1 [Tioxolone]	–	–	–	0.55	0.7	0.41	–
C[C@@H]1CCN(C(=O)CC#N)C[C@@H]1N(C)c1ncnc2[nH]ccc12 [Tofacitinib (CP-690550,Tasocitinib)]	0.46 fold	0.09 fold	0.82 fold	–	–	–	–
c1ccc(CC2=NCCN2)cc1 [Tolazoline HCl]	–	–	–	0.26	0.26	0.27	–
Cc1c(Cl)cccc1Nc1ccccc1C(=O)O [Tolfenamic Acid]	–	–	–	0.15	0.11	0.2	–
Cc1ccccc1C(=O)Nc1ccc(C(=O)N2CCCC(O)c3cc(Cl)ccc32)c(C)c1 (stereo not drawn) [Tolvaptan]	–	–	–	4.67	1.11	8.24	–
CCOC(=O)N1c2ccc(C(F)(F)F)cc2[C@@H](N(Cc2cc(C(F)(F)F)cc(C(F)(F)F)c2)C(=O)OC)C[C@H]1CC [Torcetrapib]	–	–	–	0.5	0.4	0.6	–
